Results: publication PMC13014258 (JACS Au, 2026)

System: CTSB
Test: CTSB inhibitor study, CTSB channel fluorescence of the probes in cells
Type: cell-based
Settings: HeLa cells, CA-074 500 nM 15 min, n = 30

Structure (SMILES): CCCNC(=O)[C@H]1O[C@@H]1C(=O)N[C@H](C(=O)N1CCC[C@H]1C(=O)O)[C@@H](C)CC [CTSB inhibitor]
- CTSB (blue) channel intensities of MSS2 and MSS3 in inhibitor-treated cells at resting state (then MSS2/MSS3 10 μM 5 min): significantly reduced
- CTSB (blue) channel intensities of MSS4 and MSS5 in inhibitor-treated cells at resting state (then MSS4/MSS5 10 μM 5 min): significantly reduced
